# Test results from US20100286174A1, “INHIBITING GSNOR” (Duke University, priority 2009, published 2010).
# System: diabetic nephropathy
# Test: Treatment of patient with diabetic nephropathy (Working Example IV)
# Type: in vivo, human
# Settings: person, creatinine of 3 at start; final concentration 6 micromolar; follow up 2 months later
# Excerpt: A person with diabetic nephropathy and creatinine of 3 is started on compound 6 at a final concentration of 6 micromolar and at follow up 2 months later, the creatinine is 2.
compound,measurement,value
CC(=O)CCc1ccc(-c2ccccc2)n1-c1ccc(C(C)=O)cc1 [compound 6],creatinine,2
